Measurements as given in ChEMBL document CHEMBL1201862, “PubChem BioAssay data set” (2004).
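Briefly, cells in 96-well plates were exposed to five compound concentrations for 48 h, and endpoints were estimated by linear interpolation. GI50 is the concentration that inhibits growth by half.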 Active and inactive are the calls of the source. Cut-off read from the data, not from the text of the source: active = GI50 up to about 1.1 µM and inactive = higher.

Key:
Assay in all cases: NCI-60 cell line screen, 48 h
TK-10 = test system: TK-10
COLO 205 = test system: COLO 205
NCI-H522 = test system: NCI-H522
SK-MEL-5 = test system: SK-MEL-5
HL-60 = test system: HL-60
U-251 = test system: U-251
OVCAR-8 = test system: OVCAR-8
HCT-15 = test system: HCT-15
SF-295 = test system: SF-295
LOX IMVI = test system: LOX IMVI
MOLT-4 = test system: MOLT-4
SK-MEL-2 = test system: SK-MEL-2
SF-268 = test system: SF-268
DU-145 = test system: DU-145
PC-3 = test system: PC-3
T47D = test system: T47D
RXF 393 = test system: RXF 393
Hs-578T = test system: Hs-578T
HCC 2998 = test system: HCC 2998
SR = test system: SR

Row | Structure (SMILES) | GI50 (TK-10) | GI50 (COLO 205) | GI50 (NCI-H522) | GI50 (SK-MEL-5) | GI50 (HL-60) | GI50 (U-251) | GI50 (OVCAR-8) | GI50 (HCT-15) [µM] | GI50 (SF-295) | GI50 (LOX IMVI) | GI50 (MOLT-4) | GI50 (SK-MEL-2) | GI50 (SF-268) | GI50 (DU-145) | GI50 (PC-3) | GI50 (T47D) | GI50 (RXF 393) | GI50 (Hs-578T) | GI50 (HCC 2998) | GI50 (SR)
1 | C[N+](C)(C)/C=N\c1cccc2nsnc12 | > 100 µM (inactive) | > 100 µM (inactive) | > 100 µM (inactive) | > 100 µM (inactive) | > 100 µM (inactive) | > 100 µM (inactive) | > 100 µM (inactive) | > 100 | > 100 µM (inactive) | > 100 µM (inactive) | > 100 µM (inactive) | > 100 µM (inactive) | > 100 µM (inactive) | > 100 µM (inactive) | > 100 µM (inactive) | > 100 µM (inactive) | > 100 µM (inactive) | > 100 µM (inactive) | – | –
2 | C#Cc1cc(Br)c(OC(=O)C(C)(C)C)c(-c2cc(C#C)cc(Br)c2OC(=O)C(C)(C)C)c1 | > 100 µM (inactive) | 31 µM (inactive) | 32.5 µM (inactive) | 37.6 µM (inactive) | 6.98 µM (inactive) | 45.1 µM (inactive) | 65.3 µM (inactive) | 32.6 | 30.5 µM (inactive) | 19.7 µM (inactive) | 23 µM (inactive) | 49 µM (inactive) | 50 µM (inactive) | 62.4 µM (inactive) | 50.2 µM (inactive) | 18.3 µM (inactive) | 17.4 µM (inactive) | 53.6 µM (inactive) | 24.4 µM (inactive) | –
3 | N#Cc1ccccc1-c1nc2c3c(c(N)ccc3n1)C(=O)c1ccccc1-2 | 21.4 µM (inactive) | 26.4 µM (inactive) | 32 µM (inactive) | 32.1 µM (inactive) | 20 µM (inactive) | 34.6 µM (inactive) | 33.5 µM (inactive) | 31.8 | 45.1 µM (inactive) | 27.9 µM (inactive) | 32.3 µM (inactive) | 47 µM (inactive) | 51.5 µM (inactive) | 64.1 µM (inactive) | 23.7 µM (inactive) | 6.7 µM (inactive) | 18 µM (inactive) | 33.2 µM (inactive) | > 100 µM (inactive) | –
4 | N#Cc1nc(Cc2ccccc2)oc1N | > 100 µM (inactive) | > 100 µM (inactive) | – | > 100 µM (inactive) | – | > 100 µM (inactive) | – | > 100 | > 100 µM (inactive) | > 100 µM (inactive) | > 100 µM (inactive) | > 100 µM (inactive) | > 100 µM (inactive) | > 100 µM (inactive) | > 100 µM (inactive) | > 100 µM (inactive) | > 100 µM (inactive) | 25.2 µM (inactive) | – | > 100 µM (inactive)
5 | NCC(O)CSCc1ccc(Cl)cc1 (stereo not drawn) | > 100 µM (inactive) | > 100 µM (inactive) | > 100 µM (inactive) | > 100 µM (inactive) | > 100 µM (inactive) | > 100 µM (inactive) | > 100 µM (inactive) | > 100 | > 100 µM (inactive) | > 100 µM (inactive) | > 100 µM (inactive) | – | > 100 µM (inactive) | > 100 µM (inactive) | > 100 µM (inactive) | > 100 µM (inactive) | > 100 µM (inactive) | > 100 µM (inactive) | > 100 µM (inactive) | –
6 | CCN(CC)c1ccc2cc(C(=O)Nc3ccc(C)cc3)c(=N)oc2c1 | – | > 100 µM (inactive) | – | > 100 µM (inactive) | > 100 µM (inactive) | > 100 µM (inactive) | > 100 µM (inactive) | > 100 | – | > 100 µM (inactive) | > 100 µM (inactive) | > 100 µM (inactive) | > 100 µM (inactive) | > 100 µM (inactive) | > 100 µM (inactive) | > 100 µM (inactive) | > 100 µM (inactive) | > 100 µM (inactive) | > 100 µM (inactive) | > 100 µM (inactive)
7 | COC[C@@H](C[C@H]1O[C@@](O)([C@H](O)[C@@H]2C[C@H](OC)[C@@H](O)CC/C=C(C)/C=C/[C@@H](O[C@@H]3O[C@@H](C)[C@H](OC)[C@@H](O)[C@@H]3O)[C@H](C)/C=C(C)/C=C(C)/C=C(\C)C(=O)O2)[C@H](C)[C@@H](O)[C@H]1C)O[C@H]1C[C@](C)(O)[C@@H](O[C@H]2C[C@@H](OC)[C@H](O)[C@@H](C)O2)C(C)O1 (stereo partly drawn) | > 100 µM (inactive) | 0.221 µM (active) | 0.0685 µM (active) | 0.182 µM (active) | 0.869 µM (active) | 0.0628 µM (active) | 1.44 µM (inactive) | > 100 | 0.857 µM (active) | 46.5 µM (inactive) | 2.44 µM (inactive) | > 55 µM (inactive) | > 40.8 µM (inactive) | > 61.8 µM (inactive) | 0.0447 µM (active) | 0.188 µM (active) | > 100 µM (inactive) | 69 µM (inactive) | > 80.2 µM (inactive) | –
8 | CC(C)(C)c1ccc2c(c1)C#Cc1cc(C(C)(C)C)ccc1OCCCO2 | > 100 µM (inactive) | > 100 µM (inactive) | > 100 µM (inactive) | > 100 µM (inactive) | > 100 µM (inactive) | > 100 µM (inactive) | > 100 µM (inactive) | > 100 | > 100 µM (inactive) | > 100 µM (inactive) | > 100 µM (inactive) | > 100 µM (inactive) | > 100 µM (inactive) | > 100 µM (inactive) | > 100 µM (inactive) | > 100 µM (inactive) | > 100 µM (inactive) | > 100 µM (inactive) | – | –
9 | CC(=O)Oc1ccc2c(c1)[nH]c1c3ccc(OC(C)=O)cc3oc(=O)c21 | 49.9 µM (inactive) | 30.7 µM (inactive) | 25.5 µM (inactive) | 15.3 µM (inactive) | – | 30.5 µM (inactive) | 35.4 µM (inactive) | 37 | 44.1 µM (inactive) | – | 14.2 µM (inactive) | – | 26.9 µM (inactive) | 33.3 µM (inactive) | 24.5 µM (inactive) | 20.4 µM (inactive) | 26.7 µM (inactive) | 31.3 µM (inactive) | 26.5 µM (inactive) | 22.8 µM (inactive)
10 | CC1=C([S+]([O-])c2ccc(C)cc2)CCC2(CCCCO2)O1 (stereo not drawn) | > 100 µM (inactive) | > 100 µM (inactive) | > 100 µM (inactive) | 33.3 µM (inactive) | 23.3 µM (inactive) | > 100 µM (inactive) | > 100 µM (inactive) | > 100 | > 100 µM (inactive) | > 100 µM (inactive) | > 100 µM (inactive) | 64.3 µM (inactive) | > 100 µM (inactive) | > 100 µM (inactive) | > 100 µM (inactive) | > 100 µM (inactive) | > 100 µM (inactive) | > 100 µM (inactive) | > 100 µM (inactive) | –
11 | Cc1cc2c(cc1Cl)SC(NN(C)C)=NS2(=O)=O | > 10 µM (inactive) | > 10 µM (inactive) | > 10 µM (inactive) | > 10 µM (inactive) | > 10 µM (inactive) | > 10 µM (inactive) | > 10 µM (inactive) | > 10 | > 10 µM (inactive) | > 10 µM (inactive) | > 10 µM (inactive) | > 10 µM (inactive) | > 10 µM (inactive) | > 10 µM (inactive) | > 10 µM (inactive) | > 10 µM (inactive) | > 10 µM (inactive) | > 10 µM (inactive) | > 10 µM (inactive) | –
12 | COc1ccc(/C=N/NC(=O)c2ccccc2Nc2ccccc2C(=O)N/N=C/c2ccc(OC)c(OC)c2)cc1OC | > 100 µM (inactive) | > 100 µM (inactive) | – | > 100 µM (inactive) | > 100 µM (inactive) | > 100 µM (inactive) | > 100 µM (inactive) | > 100 | 39.9 µM (inactive) | – | > 100 µM (inactive) | > 100 µM (inactive) | > 100 µM (inactive) | > 100 µM (inactive) | > 100 µM (inactive) | > 100 µM (inactive) | > 100 µM (inactive) | > 100 µM (inactive) | > 100 µM (inactive) | > 100 µM (inactive)
13 | COc1cc(/C=C2\N=C(c3ccccc3)N(c3nc4cc(C)c(C)cc4s3)C2=O)cc(OC)c1OC | 60 µM (inactive) | 27.5 µM (inactive) | – | 21.2 µM (inactive) | 17.8 µM (inactive) | 21.8 µM (inactive) | 19.8 µM (inactive) | 30.3 | 27.9 µM (inactive) | 22.4 µM (inactive) | 3.31 µM (inactive) | 32 µM (inactive) | 23 µM (inactive) | 45.4 µM (inactive) | 23.9 µM (inactive) | 40.9 µM (inactive) | 19.3 µM (inactive) | 16.6 µM (inactive) | 20.9 µM (inactive) | 18.4 µM (inactive)
14 | O=c1[nH][nH]c(=O)n1/N=C/c1ccccc1 | > 100 µM (inactive) | > 100 µM (inactive) | – | > 100 µM (inactive) | > 100 µM (inactive) | > 100 µM (inactive) | > 100 µM (inactive) | > 100 | > 100 µM (inactive) | > 100 µM (inactive) | > 100 µM (inactive) | > 100 µM (inactive) | > 100 µM (inactive) | > 100 µM (inactive) | > 100 µM (inactive) | > 100 µM (inactive) | – | > 100 µM (inactive) | – | > 100 µM (inactive)
15 | COc1ccc(OC)c2cc(Cc3ccc(N(C)C)cc3)c(=O)c(Cc3ccc(N(C)C)cc3)cc12 | – | > 100 µM (inactive) | 20.7 µM (inactive) | 63.7 µM (inactive) | – | 53.2 µM (inactive) | 32.9 µM (inactive) | > 100 | > 100 µM (inactive) | – | > 100 µM (inactive) | – | 46.7 µM (inactive) | > 100 µM (inactive) | 62.1 µM (inactive) | 76.9 µM (inactive) | > 100 µM (inactive) | 25.5 µM (inactive) | > 100 µM (inactive) | –
